Measurements as given in US9416181B2, “Compositions for cell culture and methods of using the same” (AbbVie Inc., priority 2013, dated 2016).

Legend:
Type in all cases: cell-based, Chinese Hamster
[1] = test system: Cell Line 1 (CHO) expressing Antibody 1; experiment: Acidic species variants (WCX-10) of Antibody 1, Cell Line 1 shake flask fed-batch culture; details: shake flask
Method: (§1) A recombinant Chinese Hamster Ovary (CHO) cell line (Cell Line 1) expressing a humanized monoclonal antibody (Antibody 1) was evaluated in 2 different cultures vessels (shaker flasks and 3 L laboratory-scale bioreactors). The cell line was of CHO DUX-B11 origin based on a DHFR (dihydrofolate reductase) expression system and cultured in a chemically defined basal media, and fed periodically with a chemically-defined feed media (CDFM). The media utilized throughout all of the experiments were chemically-defined, and both animal-component free, and protein-free. Each of the respective media were supplemented as needed with selected bioflavonoids to evaluate for their potential impact on the resulting acidic species profile. In preparation of the cultures, the cell lines were serially expanded through separate seed train inoculums to generate enough cells for inoculation. Process conditions utilized during the cultures were slightly different depending on the culture scale, but similar within each scale to the respective non-bioflavonoid supplemented control conditions. All bioflavonoids utilized were purchased from Sigma-Aldrich (St. Louis, Mo.).
(§2) Samples were analyzed using an HPLC system equipped with a ProPac WCX-10 analytical column (Thermo Scientific, Sunnyvale, Calif.). Approximately 100 μg of sample was loaded in 6% Buffer B (10 mM sodium phosphate, 500 mM NaCl, pH 5.5) and 94% Buffer A (10 mM sodium phosphate, pH 7.5). The column was run at a flow rate of 1.0 mL/min. The protein was eluted from the column by increasing the buffer B composition from 6% to 16% over 20 minutes. The protein peaks were measured using UV absorbance at 280 nm as the peaks eluted from the column. The column was regenerated using 100% buffer B followed be a re-equilibration period using initial condition before the injection of the next sample. Peaks eluting before the main peak were termed “acidic peaks” and peaks eluting after the main peak were called “basic peaks” (FIG. 2).
(§3) In this Example, EGCG was added into the feed (cell culture medium) at the concentration range of 5 mg/L (low), 20 mg/L (mid) and 50 mg/L (high) in a shaker experiment to determine the impact of EGCG on product quality of a humanized monoclonal antibody (Antibody 1). Detailed cell culture conditions are as described in Table 1.
(§4) However, it was not clear whether or not additional bioflavonoids would also have the same effects. To evaluate the impact of alternative bioflavonoids, fed-batch shake flask cultures were initiated with CDFM supplemented with 3 different concentrations of genistein, rutin, and naringin, in addition to EGCG. Cell growth, viability, as well as titers and acidic species variants were measured.
(§5) Charge Heterogeneity via Weak Cation Exchange Chromatography-Samples were analyzed using an HPLC system equipped with a ProPac WCX-10 analytical column (Thermo Scientific, Sunnyvale, Calif.). Approximately 100 μg of sample was loaded in 6% Buffer B (10 mM sodium phosphate, 500 mM NaCl, pH 5.5) and 94% Buffer A (10 mM sodium phosphate, pH 7.5). The column was run at a flow rate of 1.0 mL/min. The protein was eluted from the column by increasing the buffer B composition from 6% to 16% over 20 minutes. The protein peaks were measured using UV absorbance at 280 nm as the peaks eluted from the column. The column was regenerated using 100% buffer B followed be a re-equilibration period using initial condition before the injection of the next sample. Peaks eluting before the main peak were termed ‘acidic peaks’ and peaks eluting after the main peak were called ‘basic peaks’ (FIG. 2).
(§6) To evaluate the impact of other bioflavonoids, fed-batch shake flask cultures were initiated with CDFM supplemented with multiple concentrations of rutin. Cell growth, viability, as well as titers and acidic species variants were measured and shown in FIGS. 14 and 15, respectively.

[2] = test system: Cell Line 1 (CHO) expressing Antibody 1; experiment: Cell culture performance (cell growth, viability, titer), Cell Line 1 shake flask fed-batch culture; details: for relative harvest titer vs unsupplemented control / cell growth profile vs unsupplemented control: shake flask; for cell growth profile vs unsupplemented control: 3 concentrations in CDFM up to 0.5 g/L (genistein) or 1 g/L (rutin, naringin)
Method: as §1
(§7) Viable cell density (VCD) and cell viability values were measured through trypan blue exclusion via Cedex automated cell counters (Roche Applied Science, Indianapolis, Ind.), glucose and lactate values were measured with a ABL-805 (Radiometer Medical, Denmark) blood gas analyzer. Offline pH, dissolved oxygen (DO), and pCO2 measurements were performed as needed with an ABL-805 (Radiometer Medical, Denmark) blood gas analyzer. Osmolality was measured as needed on a Multi-Osmette 2430 osmometer (Precision Systems, Natick, Mass.).
Antibody titers were measured from crude cell culture harvests on a Poros A™ (Life Technologies, Carlsbad, Calif.) affinity column using an HPLC system operating with a low pH, step elution gradient with detection at 280 nm. Absolute concentrations were assigned with respect to reference standard calibration curves.
as §3, §4, §6

[3] = test system: Cell Line 1 (CHO) expressing Antibody 1; experiment: Acidic species variants (WCX-10) of Antibody 1, Cell Line 1 3 L bioreactor fed-batch culture; details: 0.1 g/L in CDFM, Day 15 harvest
Method: as §1, §2
In the next experiment, lab-scale bioreactors were used to (1) confirm the shaker experiment results and (2) to determine whether higher concentration range of EGCG is suitable for supplementing into cell culture. EGCG was added to the feed of the batch culture at the concentrations of 20 mg/L (mid), 50 mg/L (high) and 125 mg/L (high+) and 250 mg/L (high++) in this reactor experiment.
Cell Line 1 was evaluated in larger-scale feed batch cultures with the feed media supplemented with various bioflavonoids. […] By contrast, cell growth performance was slightly different for the 0.1 g/L EGCG supplemented condition. […] However, the cell viability remained high at 0.1 g/L EGCG. All cultures were successfully harvested on Day 15 post-inoculation. The harvest titers measured from the evaluated cultures were similar.
Cell Line 1 was also evaluated in laboratory-scale fedbatch cultures with the feed media supplemented with various bioflavonoids. […] Cell growth performance was slightly different however with the 0.1 g/L EGCG supplemented condition. […] All cultures were able to be successfully harvested on Day 15 post-inoculation.

[4] = test system: Cell Line 4 (CHO) expressing DVD2
Method: (§8) Four different recombinant Chinese Hamster Ovary (CHO) cell lines expressing four different recombinant glycoproteins were evaluated in either shaker flask culture, or 3 L laboratory scale bioreactors. Cell Line 1 was genetically engineered to express Antibody 1, Cell Line 2 was genetically engineered to express Antibody 2, Cell Line 3 was genetically engineered to express dual variable domain immunoglobulin 1 (DVD1) and Cell Line 4 was genetically engineered to express dual variable domain immunoglobulin 2 (DVD2).
as §7, with “pCO2 (Dissolved carbon dioxide)” for “pCO2”
Protein A Affinity Chromatography-Antibody titers were measured from crude cell culture harvests on a Poros ATM (Life Technologies, Carlsbad, Calif.) affinity column using an HPLC system operating with a low pH, step elution gradient with detection at 280 nm. […]

[5] = test system: Cell Line 4 (CHO) expressing DVD2; experiment: Acidic species variants (WCX-10), Cell Line 4 shake flask culture
Method: as §8
as §5, with “The column was regenerated using 100% buffer B followed be a re-equilibration period using initial condition before the injection of the next sample. Peaks eluting before the main peak were termed ‘acidic peaks’ and peaks eluting after the main peak were called ‘basic peaks’ (FIG. 2).” left out
as §6

Compound | ratio of acidic region to unsupplemented control ([1]; 0.1 g/L in CDFM) | ratio of acidic region to unsupplemented control ([1]; 1 g/L in CDFM) | concentration above which peak viable cell density dropped lower than unsupplemented control [2] | relative harvest titer vs unsupplemented control ([2]; 0.01 g/L in CDFM) | relative harvest titer vs unsupplemented control ([2]; 0.1 g/L in CDFM) | relative harvest titer vs unsupplemented control ([2]; 1 g/L in CDFM, statistically significant) | drop in harvest titer ([2]; CDFM supplemented to 1 g/L, Cell Line 1) | harvest cell viability ([2]; Chinese hamster, 1 g/L) [%] | drop in absolute acidic species percentage points ([3]; 3 L bioreactor) [%] | relative total AR (ratio to Day 8 value of unsupplemented control) ([3]; bioreactor) | concentration above which peak viable cell density dropped lower than unsupplemented control [4] [µg/mL] | increase in harvest titer ([4]; CDFM supplemented to 1 g/L, Cell Line 4) [%] | ratio of acidic region to unsupplemented control ([5]; 0.1 g/L in CDFM) | ratio of acidic region to unsupplemented control ([5]; 1 g/L in CDFM) | cell growth profile vs unsupplemented control [2]
C[C@@H]1O[C@@H](OC[C@H]2O[C@@H](Oc3c(-c4ccc(O)c(O)c4)oc4cc(O)cc(O)c4c3=O)[C@H](O)[C@@H](O)[C@@H]2O)[C@H](O)[C@H](O)[C@H]1O [rutin] | 0.97 | 0.65 | higher than 0.05 g/L | 0.98 | 0.93 | 0.78 | at most 22% | 76 | 5 | 1.00 | > 100 | 9 | 0.75 | 0.69 | –
C[C@@H]1O[C@@H](O[C@H]2[C@H](Oc3cc(O)c4c(c3)O[C@H](c3ccc(O)cc3)CC4=O)O[C@H](CO)[C@@H](O)[C@@H]2O)[C@H](O)[C@H](O)[C@H]1O [naringin] | – | – | – | – | – | – | – | – | – | – | – | – | – | – | lower than the unsupplemented control condition
O=c1c(-c2ccc(O)cc2)coc2cc(O)cc(O)c12 [genistein] | – | – | – | – | – | – | – | – | – | – | – | – | – | – | lower than the unsupplemented control condition
